# Activity calls are given as the source filed them. The rule behind the calls is not given here.
# Tests used:
# [1] = tested on: NCI-H23; assay: Induction of apoptosis in human H23 cells under detachment conditions assessed as necrotic cells at 0.5 uM after 24 hrs by Annexin V-FITC/propidium iodide staining-based flow cytometric analysis (reference value: 0.41%); assay type: functional
# [2] = tested on: NCI-H23; assay: Inhibition of colony formation in human H23 cells under detachment conditions assessed as reduction in number of colonies at 0.1 to 0.5 uM after 14 days by microscopic method; assay type: functional, cell-based
# [3] = tested on: NCI-H292; assay: Antiproliferative activity against human NCI-H292 cells under detachment conditions assessed as reduction in cell viability at 0.05 to 0.5 uM up to 24 hrs by XTT assay; assay type: functional, cell-based
# [4] = tested on: NCI-H460; assay: Induction of apoptosis in human H460 cells at 1 uM after 24 hrs by Hoechst 33342/propidium iodide staining based fluorescent microscopic method; assay type: functional, cell-based
# [5] = tested on: NCI-H23; assay: Induction of apoptosis in human H23 cells under detachment conditions assessed as early apoptotic cells at 0.5 uM after 24 hrs by Annexin V-FITC/propidium iodide staining-based flow cytometric analysis (reference value: 26.81%); assay type: functional
# [6] = target: T1, Serine/threonine-protein kinase AKT (Homo sapiens) (UniProt P31751+Q9Y243+P31749); assay: Inhibition of AKT phosphorylation in human H460 cells under detachment conditions at 0.05 to 0.5 uM after 12 hrs by Western blot analysis; assay type: cell-based
# [7] = tested on: NCI-H23; assay: Induction of anoikis in human H23 cells harboring with p53 mutant under detachment conditions assessed as effect on P53 level at 0.05 to 0.5 uM after 12 hrs by Western blot analysis; assay type: functional, cell-based
# [8] = tested on: NCI-H460; assay: Induction of anoikis in human H460 cells under detachment conditions after 12 hrs by Western blot analysis; assay type: functional, cell-based
# [9] = tested on: NCI-H23; assay: Antiproliferative activity against human H23 cells assessed as reduction in cell viability at 0.05 to 0.5 uM; assay type: functional, cell-based
# [10] = tested on: NCI-H460; assay: Inhibition of colony formation in human H460 cells under detachment conditions assessed as reduction in number of colonies at 0.1 to 0.5 uM after 14 days by microscopic method; assay type: functional, cell-based
# [11] = tested on: NCI-H23; assay: Induction of anoikis in human H23 cells under detachment conditions assessed as reduction in cell viability at 0.05 uM up to 24 hrs by XTT assay; assay type: functional, cell-based
# [12] = tested on: NCI-H23; assay: Induction of anoikis in human H23 cells harboring with p53 mutant under detachment conditions assessed as decrease in MCL-1 level at 0.05 to 0.5 uM after 12 hrs by Western blot analysis; assay type: functional, cell-based
# [13] = tested on: NCI-H460; assay: Induction of apoptosis in human H460 cells under detachment conditions assessed as late apoptotic cells at 0.5 uM after 24 hrs by Annexin V-FITC/propidium iodide staining-based flow cytometric analysis (reference value: 15.44%); assay type: functional
# [14] = tested on: NCI-H460; assay: Induction of apoptosis in human H460 cells under detachment conditions at 0.05 to 0.5 uM after 24 hrs by Hoechst 33342/propidium iodide staining based fluorescent microscopic method; assay type: functional, cell-based
# [15] = tested on: NCI-H460; assay: Inhibition of epithelial-mesenchymal transition in human H460 cells under detachment conditions assessed as decrease in vimentin protein level 0.05 to 0.5 uM after 12 hrs by Western blot analysis; assay type: functional, cell-based
# [16] = tested on: NCI-H460; assay: Induction of apoptosis in human H460 cells at 0.05 to 0.5 uM after 24 hrs by Hoechst 33342/propidium iodide staining based fluorescent microscopic method; assay type: functional, cell-based
# [17] = tested on: NCI-H460; assay: Induction of anoikis in human H460 cells under detachment conditions assessed as fold change at 0.5 uM after 24 hrs by Annexin V-FITC/propidium iodide staining-based flow cytometric analysis; assay type: functional
# [18] = tested on: NCI-H460; assay: Induction of apoptosis in human H460 cells under detachment conditions assessed as necrotic cells at 0.5 uM after 24 hrs by Annexin V-FITC/propidium iodide staining-based flow cytometric analysis (reference value: 1.58%); assay type: functional
# [19] = target: T1, Serine/threonine-protein kinase AKT (Homo sapiens); assay: Inhibition of AKT phosphorylation in human H23 cells harboring with p53 mutant under detachment conditions at 0.05 to 0.5 uM after 12 hrs by Western blot analysis; assay type: cell-based
# [20] = tested on: NCI-H460; assay: Induction of apoptosis in human H460 cells under detachment conditions assessed as viable cells at 0.5 uM after 24 hrs by Annexin V-FITC/propidium iodide staining-based flow cytometric analysis (reference value: 60.43%); assay type: functional
# [21] = tested on: NCI-H460; assay: Antiproliferative activity against human H460 cells assessed as reduction in cell viability at 0.1 to 0.5 uM after at 72 hrs by crystal violet staining assay; assay type: functional, cell-based
# [22] = tested on: NCI-H460; assay: Inhibition of colony formation in human H460 cells under detachment conditions assessed as reduction in size of colonies at 0.1 to 0.5 uM after 14 days by microscopic method; assay type: functional, cell-based
# [23] = tested on: NCI-H23; assay: Inhibition of epithelial-mesenchymal transition in human H23 cells harboring with p53 mutant under detachment conditions assessed as decrease in vimentin protein level 0.05 to 0.5 uM after 12 hrs by Western blot analysis; assay type: functional, cell-based
# [24] = tested on: NCI-H292; assay: Induction of apoptosis in human NCI-H292 cells under detachment conditions assessed as viable cells at 0.5 uM after 24 hrs by Annexin V-FITC/propidium iodide staining-based flow cytometric analysis (reference value: 40.55%); assay type: functional; conditions: NCI-H292, 24 h, read-out: Activity
# [25] = tested on: NCI-H460; assay: Induction of anoikis in human H460 cells […] under detachment conditions assessed as effect on P53 level at 0.05 to 0.5 uM after 12 hrs by Western blot analysis; assay type: functional, cell-based
# [26] = tested on: NCI-H460; assay: Induction of apoptosis in human H460 cells assessed as accumulation of necrotic cells at 0.05 to 1 uM after 24 hrs by Hoechst 33342/propidium iodide staining based fluorescent microscopic method; assay type: functional, cell-based
# [27] = tested on: NCI-H460; assay: Induction of apoptosis in human H460 cells under detachment conditions assessed as early apoptotic cells at 0.5 uM after 24 hrs by Annexin V-FITC/propidium iodide staining-based flow cytometric analysis (reference value: 22.55%); assay type: functional
# [28] = tested on: NCI-H460; assay: Induction of apoptosis in human H460 cells under detachment conditions assessed as accumulation of necrotic cells at 0.05 to 0.5 uM after 24 hrs by Hoechst 33342/propidium iodide staining based fluorescent microscopic method; assay type: functional, cell-based
# [29] = tested on: NCI-H460; assay: Antiproliferative activity against human H460 cells assessed as reduction in cell viability at 0.05 to 0.5 uM after 24 hrs by MTT assay; assay type: functional, cell-based
# T1 sequence (P31749 whole entry, looked up): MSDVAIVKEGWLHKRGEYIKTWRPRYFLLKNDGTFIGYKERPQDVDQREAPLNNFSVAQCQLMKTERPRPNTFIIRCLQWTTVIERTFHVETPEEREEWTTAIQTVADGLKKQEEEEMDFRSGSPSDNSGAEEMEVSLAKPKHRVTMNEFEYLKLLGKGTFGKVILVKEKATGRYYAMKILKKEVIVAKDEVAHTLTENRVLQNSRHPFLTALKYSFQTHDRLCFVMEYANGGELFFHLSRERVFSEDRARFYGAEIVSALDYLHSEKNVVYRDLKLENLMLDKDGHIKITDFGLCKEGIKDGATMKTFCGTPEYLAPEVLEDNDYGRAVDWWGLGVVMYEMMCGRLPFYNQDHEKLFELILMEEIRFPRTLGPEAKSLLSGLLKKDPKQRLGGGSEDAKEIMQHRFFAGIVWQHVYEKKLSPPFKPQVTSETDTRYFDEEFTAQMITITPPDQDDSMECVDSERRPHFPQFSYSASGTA
# T1 sequence (P31751 whole entry, looked up): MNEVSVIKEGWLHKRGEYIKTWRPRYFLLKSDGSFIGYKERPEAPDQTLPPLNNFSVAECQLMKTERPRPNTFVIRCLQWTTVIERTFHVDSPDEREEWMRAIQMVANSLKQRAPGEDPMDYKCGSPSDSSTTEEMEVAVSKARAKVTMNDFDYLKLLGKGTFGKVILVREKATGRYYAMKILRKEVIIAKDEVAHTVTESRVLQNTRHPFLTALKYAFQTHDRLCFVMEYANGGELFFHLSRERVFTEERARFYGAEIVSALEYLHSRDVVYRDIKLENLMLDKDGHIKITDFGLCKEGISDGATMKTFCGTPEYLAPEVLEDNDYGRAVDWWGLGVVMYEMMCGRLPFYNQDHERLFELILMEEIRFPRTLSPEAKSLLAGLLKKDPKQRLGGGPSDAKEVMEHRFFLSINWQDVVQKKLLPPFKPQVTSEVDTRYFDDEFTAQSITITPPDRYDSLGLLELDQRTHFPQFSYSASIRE
# T1 sequence (Q9Y243 whole entry, looked up): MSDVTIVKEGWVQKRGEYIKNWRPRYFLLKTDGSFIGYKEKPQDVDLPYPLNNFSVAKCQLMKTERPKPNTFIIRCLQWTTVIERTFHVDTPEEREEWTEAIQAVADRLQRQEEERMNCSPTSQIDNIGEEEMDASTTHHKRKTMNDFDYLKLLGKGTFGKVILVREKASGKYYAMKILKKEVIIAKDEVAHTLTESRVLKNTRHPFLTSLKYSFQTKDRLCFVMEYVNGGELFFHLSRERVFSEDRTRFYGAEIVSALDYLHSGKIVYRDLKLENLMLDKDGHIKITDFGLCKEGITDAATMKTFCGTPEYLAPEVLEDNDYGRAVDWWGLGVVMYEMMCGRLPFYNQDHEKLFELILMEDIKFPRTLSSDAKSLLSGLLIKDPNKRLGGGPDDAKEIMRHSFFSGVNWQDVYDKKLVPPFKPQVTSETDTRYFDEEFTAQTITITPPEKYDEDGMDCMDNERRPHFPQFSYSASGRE
structure (smiles),measurement,setting,value
COC1=C(C)C(=O)C2=C(C1=O)[C@@H]1[C@@H]3CC4=C(C(=O)C(OC)=C(C)C4=O)[C@H](CO)N3[C@@H](C#N)[C@H](C2)N1C [JOURNNAMYCIN A],Activity,[1],0.49%
same,inhibition,[2],Active
same,Activity,[3],Active
same,Activity,[4],Active
same,Activity,[5],37.79%
same,inhibition,[6],Active
same,Activity,[7],inactive
same,Activity,[8],Dose-dependent effect
same,Activity,[9],inactive
same,inhibition,[10],Active
same,Activity,[11],Active
same,Activity,[12],Active
same,Activity,[13],48.01%
same,Activity,[14],Active
same,inhibition,[15],Active
same,Activity,[16],inactive
same,Activity,[17],1.39%
same,Activity,[18],24.2%
same,inhibition,[19],Active
same,fold change (FC),[20],2
same,Activity,[21],Active
same,inhibition,[22],Active
same,inhibition,[23],Active
same,viability at 0.5 µM,[24],25.8%
same,Activity,[25],inactive
same,Activity,[26],inactive
same,Activity,[27],26.4%
same,Activity,[28],inactive
same,Activity,[29],inactive

# Source: ChEMBL document CHEMBL4334449, “Jorunnamycin A from Xestospongia sp. Suppresses Epithelial to Mesenchymal Transition and Sensitizes Anoikis in Human Lung Cancer Cells” (J Nat Prod, 2019)
